The source of these data is publication PMC4786250, “Effects of Intraosseous Tibial vs. Intravenous Vasopressin in a Hypovolemic Cardiac Arrest Model” (Western Journal of Emergency Medicine, 2016).

Series [1] has as its system hypovolemic cardiac arrest model. The experiment in a line: Return of spontaneous circulation (ROSC) in a hypovolemic cardiac arrest model. It counts as in vivo, Yorkshire swine. Particulars: for time to ROSC: 40 units, mean ± standard deviation, SD; for Number achieving ROSC / Number not achieving ROSC: 40 units + CPR + defibrillation, up to 20 min. The source says: (§1) The study was a prospective, between-subjects, experimental design. The Institutional Animal Care and Use Committee (IACUC) approved the research protocol, and the animals received care in compliance with the Animal Welfare Act. Twenty-eight Yorkshire swine were randomly assigned by a computer generated random number program to one of four groups: IV + defibrillation (n=7), IO tibia + defibrillation (n=7), CPR + defibrillation (n=7), and a control group that received just CPR (n=7). Two additional swine were added in the each of the IV and IO groups for model development. These two swine meet the criteria for inclusion in the study, and no changes were necessary in the protocol. Therefore, the pigs were included in both groups to make a total of eight in both the tibial IO and IV groups. However, one pig in the IO group was ill and was deleted from the study making a total of seven in that group.
(§2) In addition, their blood volume is the same as humans: 70ml per kg of body weight.[18],[19] To avoid any variability in subjects, we purchased the swine from the same vendor and acquired pigs that were approximately the same size. Male swine were used to avoid any potential hormonal effects. Subjects weighing between 60 to 80kg were used as this range represents the average weight of an adult, human.[20] […] All subjects received no food after midnight the evening before the study but were allowed fluids as desired until the experiment
(§3) Each subject received pre-emptive analgesia with Telazol (4–8mg/kg). They were then sedated, anesthetized, intubated, and placed on mechanical ventilation. A standard Narkomed® anesthesia machine (Dräger, Telford, PA) was used to deliver isoflurane at a maintenance dose (0.5–2%) and ventilation at 8–10mL/kg at 10–14 breaths per minute. A peripheral IV was started on all subjects using an 18- or 20-gauge catheter in the auricular vein. […] Hemodynamics were evaluated continuously that included the following: electrocardiogram, arterial blood pressure via a left carotid artery catheter, mean arterial pressure, oxygen saturation, end-tidal carbon dioxide, and temperature. A forced-air warming blanket was used to sustain rectal temperature greater than 36 degrees Celsius. A Vigileo™ (Edwards Lifesciences, Irvine, CA) was used to obtain cardiac output and stroke volume measurements via the arterial line. The femoral artery was cannulated for the collection of blood samples and for the achievement of controlled hemorrhage.
(§4) For swine in the tibial IO group, we inserted an EZ-IO® device (Vidacare, San Antonio, TX) in the proximal, medial tibia. Placement was confirmed by aspiration of blood and easy irrigation with 10mL of 0.9% normal saline (NS). Patency was maintained by administering Lactated Ringer’s solution with a pressure bag at 300mmHg. Subjects were allowed to stabilize for 15 minutes; we then exsanguinated 31% of their blood volume from the femoral artery catheter into a canister. This represented a Class III hemorrhage. Hemorrhage was accomplished by allowing blood to drain by gravity over approximately 15 minutes. To ensure the amount exsanguinated was correct, the investigators used a scale that was accurate and precise within 0.5%.
(§5) In response to hypovolemic shock in accordance with Tactical Combat Casualty Care guidelines, we administered 500mL of 5% albumin to all subjects over 10 minutes.[22] Five minutes after the administration of albumin, the investigators placed the pigs in cardiac arrest, defined as a nonperfusing arrhythmia. […] The needles were attached to alligator clamps. The clamps were attached to three 9-volt batteries that were connected in a series to deliver an electrical current, thereby inducing nonperfusing ventricular fibrillation. We were able to establish ventricular fibrillation usually within 10 seconds. In some cases, we had to reposition the needles resulting in 100% being placed into ventricular fibrillation.
(§6) The pigs were allowed to remain in arrest for two minutes. […]

Series [2] is described as follows: Vasopressin concentration in blood samples (HPLC-MS/MS) after tibial IO or IV administration in a hypovolemic cardiac arrest model. In kind it is in vivo, Yorkshire swine. Conditions: 40 units; for Cmax / Tmax / level at 1 min: Yorkshire, serum; for Cmax / Tmax: pig, mean ± standard deviation; for Cmax: during CPR, male swine 60-80 kg, 31% blood volume hemorrhage, ventricular fibrillation, femoral artery samples 0.5-4 min, HPLC-MS/MS; for Tmax / level at 1 min: male; for Tmax: SD; for level at 1 min: 60 seconds after injection, mean ± standard error, SEM.
Source text: as §1, §2, §3, §4, §5, §6

Broadly, the Cmax is the highest concentration seen after dosing. What is called Tmax is the time at which the peak concentration occurs.

For `NC(=O)CC[C@@H]1NC(=O)[C@H](Cc2ccccc2)NC(=O)[C@H](Cc2ccc(O)cc2)NC(=O)[C@@H](N)CSSC[C@@H](C(=O)N2CCC[C@H]2C(=O)N[C@@H](CCCN=C(N)N)C(=O)NCC(N)=O)NC(=O)[C@H](CC(N)=O)NC1=O` [vasopressin], the results for the “time to ROSC” value in series [1] (IO group (line "IO vs. CPR + defibrillation")) and in series [1] (IV group (line "IV vs. IO")) were 493 ± 226 s and 559 ± 231 s, respectively. Also, the “Odds of ROSC” value in series [1] (IO vs. CPR + defibrillation) was determined as 15; in series [1] (IO vs. CPR only), 65; in series [1] (IV vs. CPR + defibrillation) it was 17.5; in series [1] (IV vs. CPR only), 75. Moreover, the “Number achieving ROSC” value is 7 in series [1] (IV, N=8) and 6 in series [1] (tibial IO, N=7). Besides, the “Number not achieving ROSC” value in series [1] (IV, N=8) came to 1; in series [1] (tibial IO, N=7), 1. Besides, the Cmax came to 106 ng/mL in series [2] (IV (auricular vein) push, n=8) and 58.7 ng/mL in series [2] (tibial IO push, n=7). Further, the Tmax is 1.43 min in series [2] (IV, n=8) and 2.63 min in series [2] (tibial IO, n=7). Besides, the level at 1 min in series [2] (IV, n=8) is 76.8 ng/mL; in series [2] (tibial IO, n=7) it was 23.6 ng/mL. Also, in series [2] (tibial IO relative to IV), the “Cmax concentration of the IO group compared to the IV group” value stood at 55%.
